# Results: ChEMBL document CHEMBL1122466, “Synthesis of partially modified retro-inverso substance P analogues and their biological activity” (1983)
# Residues, ends and D or L forms follow the SMILES beside them.
# How the values were obtained:
# Cavia porcellus [1] = organism: Cavia porcellus; assay: Relative potency in guinea pig ileum assay.; assay type: functional
# Cavia porcellus [2] = organism: Cavia porcellus; assay: ED50 represents the concentration of the agonist in the organ bath corresponding to 50% of the maximal measured spasmogenic effect.; assay type: functional
Structure (SMILES),Relative potency (Cavia porcellus [1]),ED50 (Cavia porcellus [2])
CSCC[C@@H](NC(=O)[C@H](CC(C)C)NC(=O)CC(=O)N[C@H](Cc1ccccc1)NC(=O)[C@@H](Cc1ccccc1)NC(=O)[C@@H]1CCC(=O)N1)C(N)=O,22,0.9 nM
CSCC[C@H](NC(=O)[C@H](CC(C)C)NC(=O)CNC(=O)[C@H](Cc1ccccc1)NC(=O)[C@@H](Cc1ccccc1)C(=O)N[C@@H]1CCC(=O)N1)C(N)=O (HELM PEPTIDE1{[O=C1CC[C@@H](NC(=O)[C@H](Cc2ccccc2)C(=O)[*:2])N1].F.G.L.M.[am]}$$$$V2.0),<0.01,–
